Source: PubChem BioAssay (NCI)
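Values below derive from 48-hour exposures of cells grown in 96-well plates, with endpoints linearly interpolated between the two concentrations bracketing the appropriate inhibition level. GI50 is the concentration that inhibits growth by half. The concentration for full growth arrest is given as TGI.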

How the values were obtained:
Assay in all cases: growth of human tumour cells (NCI), 48 h
786-0 renal = test system: 786-0 renal
NCI-H23 lung = test system: NCI-H23 lung
OVCAR-8 ovarian = test system: OVCAR-8 ovarian
HOP-62 NSCLC = test system: HOP-62 NSCLC
MCF7 breast = test system: MCF7 breast
HCC-2998 colon = test system: HCC-2998 colon
SW-620 colon = test system: SW-620 colon
M14 melanoma = test system: M14 melanoma
ACHN renal = test system: ACHN renal
UACC-257 melanoma = test system: UACC-257 melanoma
HCT-116 colon = test system: HCT-116 colon
COLO 205 colon = test system: COLO 205 colon
MALME-3M melanoma = test system: MALME-3M melanoma
SR leukemia = test system: SR leukemia
A549 NSCLC = test system: A549 NSCLC
BT-549 breast = test system: BT-549 breast
SNB-19 CNS = test system: SNB-19 CNS
UACC-62 melanoma = test system: UACC-62 melanoma
HL-60(TB) leukemia = test system: HL-60(TB) leukemia
MDA-MB-231 breast = test system: MDA-MB-231 breast
DU-145 prostate = test system: DU-145 prostate
MDA-MB-435 = test system: MDA-MB-435
RXF 393 renal = test system: RXF 393 renal
U251 CNS = test system: U251 CNS
SK-MEL-28 melanoma = test system: SK-MEL-28 melanoma
SF-295 CNS = test system: SF-295 CNS
K-562 leukemia = test system: K-562 leukemia
NCI-H460 lung = test system: NCI-H460 lung
HCT-15 colon = test system: HCT-15 colon
SN12C renal = test system: SN12C renal
LOX IMVI melanoma = test system: LOX IMVI melanoma
NCI/ADR-RES ovarian = test system: NCI/ADR-RES ovarian
HT29 colon = test system: HT29 colon
UO-31 renal = test system: UO-31 renal
SNB-75 CNS = test system: SNB-75 CNS
IGROV1 ovarian = test system: IGROV1 ovarian
CCRF-CEM leukemia = test system: CCRF-CEM leukemia
TK-10 renal = test system: TK-10 renal
SF-539 CNS = test system: SF-539 CNS
OVCAR-4 ovarian = test system: OVCAR-4 ovarian
HS 578T breast = test system: HS 578T breast
MOLT-4 leukemia = test system: MOLT-4 leukemia
SK-OV-3 ovarian = test system: SK-OV-3 ovarian
RPMI-8226 leukemia = test system: RPMI-8226 leukemia
HOP-92 NSCLC = test system: HOP-92 NSCLC
SF-268 CNS = test system: SF-268 CNS
KM12 colon = test system: KM12 colon
NCI-H226 lung = test system: NCI-H226 lung
T-47D breast = test system: T-47D breast
OVCAR-3 ovarian = test system: OVCAR-3 ovarian
OVCAR-5 ovarian = test system: OVCAR-5 ovarian
NCI-H522 lung = test system: NCI-H522 lung
CAKI-1 renal = test system: CAKI-1 renal
A498 renal = test system: A498 renal
SK-MEL-5 melanoma = test system: SK-MEL-5 melanoma

With `COc1ccc(-c2csc(NC(=O)c3cc(O)c(O)c(O)c3)n2)cc1` the GI50 (786-0 renal) was 11 µM, the TGI (786-0 renal) was over 33.3 µM and the GI50 (NCI-H23 lung) was 11.2 µM. The TGI (NCI-H23 lung) was over 33.3 µM, the GI50 (OVCAR-8 ovarian) was 7.52 µM and the TGI (OVCAR-8 ovarian) was over 33.3 µM. It also gave a GI50 (HOP-62 NSCLC) of 8.92 µM, a TGI (HOP-62 NSCLC) of over 33.3 µM and a GI50 (MCF7 breast) of 10.7 µM. The TGI (MCF7 breast) was over 33.3 µM, the GI50 (HCC-2998 colon) was 17.2 µM and the TGI (HCC-2998 colon) was over 33.3 µM. It also gave a GI50 (SW-620 colon) of 5.69 µM, a TGI (SW-620 colon) of over 33.3 µM and a GI50 (M14 melanoma) of 10.4 µM. It also gave a TGI (M14 melanoma) of over 33.3 µM, a GI50 (ACHN renal) of 3.76 µM and a TGI (ACHN renal) of over 33.3 µM. The GI50 (UACC-257 melanoma) was 11.9 µM, the TGI (UACC-257 melanoma) was over 33.3 µM and the GI50 (HCT-116 colon) was 6.69 µM. The TGI (HCT-116 colon) was over 33.3 µM, the GI50 (COLO 205 colon) was 10.8 µM and the TGI (COLO 205 colon) was over 33.3 µM. The GI50 (MALME-3M melanoma) was 11.1 µM, the TGI (MALME-3M melanoma) was over 33.3 µM and the GI50 (SR leukemia) was 1.89 µM. It also gave a TGI (SR leukemia) of over 33.3 µM, a GI50 (A549 NSCLC) of 10.3 µM and a TGI (A549 NSCLC) of over 33.3 µM. For the same compound, the GI50 (BT-549 breast) was 10.9 µM, the TGI (BT-549 breast) was over 33.3 µM and the GI50 (SNB-19 CNS) was 6.02 µM. It also gave a TGI (SNB-19 CNS) of over 33.3 µM, a GI50 (UACC-62 melanoma) of 5.87 µM and a TGI (UACC-62 melanoma) of over 33.3 µM. The GI50 (HL-60(TB) leukemia) was 8.28 µM, the TGI (HL-60(TB) leukemia) was 23.9 µM and the GI50 (MDA-MB-231 breast) was 5.18 µM. The TGI (MDA-MB-231 breast) was over 33.3 µM, the GI50 (DU-145 prostate) was 9.59 µM and the TGI (DU-145 prostate) was over 33.3 µM. For the same compound, the GI50 (MDA-MB-435) was 8.69 µM, the TGI (MDA-MB-435) was over 33.3 µM and the GI50 (RXF 393 renal) was 7.31 µM. It also gave a TGI (RXF 393 renal) of over 33.3 µM, a GI50 (U251 CNS) of 4.09 µM and a TGI (U251 CNS) of over 33.3 µM. It also gave a GI50 (SK-MEL-28 melanoma) of 13.2 µM, a TGI (SK-MEL-28 melanoma) of over 33.3 µM and a GI50 (SF-295 CNS) of 16.1 µM. It also gave a TGI (SF-295 CNS) of over 33.3 µM, a GI50 (K-562 leukemia) of 4.5 µM and a TGI (K-562 leukemia) of over 33.3 µM. For the same compound, the GI50 (NCI-H460 lung) was 7.5 µM, the TGI (NCI-H460 lung) was over 33.3 µM and the GI50 (HCT-15 colon) was 6.63 µM. It also gave a TGI (HCT-15 colon) of over 33.3 µM, a GI50 (SN12C renal) of 7.42 µM and a TGI (SN12C renal) of over 33.3 µM. The GI50 (LOX IMVI melanoma) was 6.57 µM, the TGI (LOX IMVI melanoma) was over 33.3 µM and the GI50 (NCI/ADR-RES ovarian) was 11.2 µM. It also gave a TGI (NCI/ADR-RES ovarian) of over 33.3 µM, a GI50 (HT29 colon) of 18.6 µM and a TGI (HT29 colon) of over 33.3 µM. For the same compound, the GI50 (UO-31 renal) was 1.65 µM, the TGI (UO-31 renal) was over 33.3 µM and the GI50 (SNB-75 CNS) was 6.32 µM. For the same compound, the TGI (SNB-75 CNS) was over 33.3 µM, the GI50 (IGROV1 ovarian) was 6.69 µM and the TGI (IGROV1 ovarian) was 32.6 µM. It also gave a GI50 (CCRF-CEM leukemia) of 1.55 µM, a TGI (CCRF-CEM leukemia) of 17.6 µM and a GI50 (TK-10 renal) of 6.36 µM. For the same compound, the TGI (TK-10 renal) was over 33.3 µM, the GI50 (SF-539 CNS) was 7.64 µM and the TGI (SF-539 CNS) was over 33.3 µM. For the same compound, the GI50 (OVCAR-4 ovarian) was 7.27 µM, the TGI (OVCAR-4 ovarian) was over 33.3 µM and the GI50 (HS 578T breast) was 19.3 µM. The TGI (HS 578T breast) was over 33.3 µM, the GI50 (MOLT-4 leukemia) was 2.3 µM and the TGI (MOLT-4 leukemia) was over 33.3 µM. The GI50 (SK-OV-3 ovarian) was 17.2 µM, the TGI (SK-OV-3 ovarian) was over 33.3 µM and the GI50 (RPMI-8226 leukemia) was 5.59 µM. It also gave a TGI (RPMI-8226 leukemia) of over 33.3 µM, a GI50 (HOP-92 NSCLC) of 5.24 µM and a TGI (HOP-92 NSCLC) of 26.2 µM. For the same compound, the GI50 (SF-268 CNS) was 6.31 µM, the TGI (SF-268 CNS) was over 33.3 µM and the GI50 (KM12 colon) was 13.2 µM. For the same compound, the TGI (KM12 colon) was over 33.3 µM, the GI50 (NCI-H226 lung) was 9.59 µM and the TGI (NCI-H226 lung) was over 33.3 µM. For the same compound, the GI50 (T-47D breast) was 5.19 µM, the TGI (T-47D breast) was 22.6 µM and the GI50 (OVCAR-3 ovarian) was 12.2 µM. For the same compound, the TGI (OVCAR-3 ovarian) was over 33.3 µM, the GI50 (OVCAR-5 ovarian) was over 33.3 µM and the TGI (OVCAR-5 ovarian) was over 33.3 µM. For the same compound, the GI50 (NCI-H522 lung) was 1.32 µM, the TGI (NCI-H522 lung) was 6.89 µM and the GI50 (CAKI-1 renal) was 2.61 µM. It also gave a TGI (CAKI-1 renal) of over 33.3 µM, a GI50 (A498 renal) of 9.61 µM and a TGI (A498 renal) of over 33.3 µM. For the same compound, the GI50 (SK-MEL-5 melanoma) was 6.04 µM and the TGI (SK-MEL-5 melanoma) was over 33.3 µM.
